Measured values reported in patent US20220257569A1, “INDOLE-OXADIAZOLE COMPOUNDS AND THEIR THERAPEUTIC USE” (THE GOVERNING COUNCIL OF THE UNIVERSITY OF TORONTO, priority 2018, published 2022).

Assays:
cannabinoid CB1 receptor = target: T1, cannabinoid CB1 receptor (Homo sapiens, UniProt P21554); test: PathHunter β-Arrestin assay (allosteric inhibition of agonist Emax); assay type: cell-based; settings: FIG. 1; reduction in Emax not overcome by higher concentrations of agonist
T1 construct: host or cells: HEK293 CB1 β-arrestin cells
T1 sequence (P21554 whole entry): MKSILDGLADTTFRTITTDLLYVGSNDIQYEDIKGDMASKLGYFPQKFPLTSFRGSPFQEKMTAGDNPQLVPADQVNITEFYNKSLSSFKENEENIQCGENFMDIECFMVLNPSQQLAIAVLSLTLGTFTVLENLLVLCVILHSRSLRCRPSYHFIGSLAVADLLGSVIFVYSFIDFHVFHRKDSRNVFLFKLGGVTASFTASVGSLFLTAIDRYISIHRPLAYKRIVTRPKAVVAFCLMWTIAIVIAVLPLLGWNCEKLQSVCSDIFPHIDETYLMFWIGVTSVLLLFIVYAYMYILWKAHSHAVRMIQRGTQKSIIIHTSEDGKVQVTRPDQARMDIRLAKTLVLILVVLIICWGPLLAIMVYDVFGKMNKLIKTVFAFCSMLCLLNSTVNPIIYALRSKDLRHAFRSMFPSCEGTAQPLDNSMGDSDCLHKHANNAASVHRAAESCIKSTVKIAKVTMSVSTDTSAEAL
Source text: PathHunter™ enzyme fragment complementation is the most important method to measure β-arrestin recruitment. PathHunter™ β-Arrestin assays developed by DiscoveRX are revolutionary high-throughput screening assays for monitoring GPCR activation following ligand stimulation, without an imaging instrument, fluorescent protein tag, or radioactivity.
Instead, the assays detect GPCR activation through binding of β-arrestin to the expressed GPCR of interest, and measure the interaction of the two proteins using enzyme fragment complementation (EFC). The EFC approach offers a range of benefits for screening, including signal amplification and robust performance.
The larger portion of β-gal, termed EA for enzyme acceptor, is fused to the C-terminus of β-arrestin. The smaller, complementing fragment of β-gal, the ProLink™ tag, is expressed as a fusion protein with the GPCR of interest at the C-terminus. Upon activation, the GPCR is bound by β-arrestin. The interaction of β-arrestin and the GPCR forces the interaction of ProLink and EA, thus allowing complementation of the two fragments of β-gal and the formation of a functional enzyme capable of hydrolyzing substrate and generating a […] signal.
Using the PathHunter™ CB1 kit from DiscoveRX, a cannabinoid CB1 receptor agonist is added and activates the receptor, EA, which is fused to the C-terminus of β-arrestin, and then interacts with the ProLink™ tag which is fused to the CB1 receptor. This will result in the […] signal that is recorded by a luminescence plate reader. The […] signal is directly related to the activation of the receptor, therefore a higher concentration of agonist will yield a larger […] signal. The cannabinoid agonist is added in increasing concentrations to obtain an agonist dose response curve. With pre-incubation of a potential allosteric modulator, either an enhancement of agonist activity with an allosteric enhancer or a decrease in the maximal response of the agonist with an allosteric inhibitor is expected.
All raw data are obtained as luminescence (relative light units), and are normalised and presented as a percentage of the maximal response for the cannabinoid CB1 receptor agonist CP55,940 (2-[(1R,2R,5R)-5-hydroxy-2-(3-hydroxypropyl)cyclohexyl]-5-(2-methyloctan-2-yl)phenol).
The PathHunter™ β-Arrestin assay (from DiscoveRX, Fremont, USA) was performed as follows. HEK293 CB1 β-arrestin cells were plated 48 hours before use and incubated at 37° C., 5% CO2 in a humidified incubator. Test compounds were dissolved in dimethylsulfoxide (DMSO) and diluted in optimized cell culture (OCC, as supplied by DiscoveRX) media to the required concentrations. 5 μL of test compound or vehicle solution was added to each well and incubated for 60 minutes at 37° C., 5% CO2 in a humidified incubator. 5 μL of increasing concentrations of anandamide was added to each well followed by a 90-minute incubation at 37° C., 5% CO2 in a humidified incubator. 55 μL of detection reagent (as supplied by DiscoveRX) was then added, followed by a further 90 minute incubation at room temperature in the dark. Chemiluminescence, reported in relative light units (RLU—a dimensionless value, standardised as a % of maximum stimulation with anandamide), was measured on a standard luminescence plate reader.
Data were plotted as % of maximal stimulation (Emax) caused by agonist versus the logarithm of concentration of agonist, in the presence or absence of a fixed concentration of test compound (modulator) or vehicle. For example, stimulation in the presence of agonist alone will give a value for stimulation expressed in RLU, which can be expressed as a range from 0% (at lowest agonist concentration, e.g., 1 nM) to 100% (at the highest agonist concentration, e.g., 10 μM). […]

[1] = Rat liver microsomal stability assay; assay type: in vitro ADME; settings: pooled rat liver microsomes 0.5 mg/mL, 3 μM compound, NADPH, 37° C., 45 min
Method: Metabolic stability of indole-oxadiazole derivatives of Formula I was measured by determination of the rate of compound disappearance when incubated in the presence of human or rat liver microsomes. Liver microsomes are prepared from the endoplasmic reticulum of hepatocytes and are the primary source of the most important enzymes (cytochrome P450) involved in drug metabolism. Study of drug stability in the presence of liver microsomes is accepted as a valuable model permitting rapid prediction of in vivo drug stability.
Human and rat liver microsomes were obtained from commercial sources. Test compounds (3 μM) were incubated with pooled liver microsomes (male and female). Samples were incubated for a 45 minute period and removed at 5 time points and test compounds were analysed by LC-MS/MS.
Microsomes (final protein concentration 0.5 mg/mL), 0.1 M phosphate buffer pH 7.4, and test compound (final concentration 3 μM; diluted from 10 mM stock solution to give a final DMSO concentration of 0.25%) were incubated at 37° C. prior to the addition of NADPH (final concentration 1 mM) to initiate the reaction. The final incubation volume was 25 μL. A control incubation was included for each compound tested, where 0.1 M phosphate buffer pH 7.4 was added instead of NADPH. The control compounds testosterone and 7-hydroxycoumarin were included in each experiment and all incubations were performed singularly for each compound.
Each compound was incubated for 0, 5, 15, 30, and 45 minutes. The control (minus NADPH) was incubated for 45 minutes only. The reactions were stopped by the addition of 50 μL methanol containing internal standard at the appropriate time points. The incubation plates were centrifuged at 2500 rpm for 20 minutes at 4° C. to precipitate the protein.
Following protein precipitation, the sample supernatants were combined in cassettes of up to 4 compounds and analysed using standard LC-MS/MS conditions.
From a plot of the natural logarithm of the peak area ratio (i.e., the ratio of compound peak area:internal standard peak area) against time, the gradient of the line was determined. Subsequently, half-life and intrinsic clearance were calculated using the equations below:
Eliminated rate constant (k)=(−gradient).

For `CCc1c(-c2nnc(Nc3ccccc3)o2)[nH]c2ccc(Cl)cc12` [ABM300, 5-(5-Chloro-3-ethyl-1H-indol-2-yl)-N-phenyl-1,3,4-oxadiazol-2-amine], the melting point was 252 to 254 °C, the type of modulation (cannabinoid CB1 receptor) was “allosteric inhibitor (negative allosteric modulator)” and the “Microsomal stability T1/2 Rat” value [1] was 1.83 h.
